Measurements taken from US20260042764A1, “COMPOSITIONS AND METHODS FOR INHIBITION OF KRAS” (TheRas, Inc., priority 2022, published 2026).

Tests used:
[1] = test system: SW620 cells (KRAS G12V); assay: Cell-based pERK HTRF assay in SW620 cell (Biological Example 4); settings: pERK HTRF
Method in brief: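 Read-out: HTRF pERK signal (excitation 320 nm, emission 615 nm) from lysates of SW620 cells after 4 h compound exposure. Dose range was 9 points, half-log steps from 1 μM, in 0.25% DMSO; antibody incubation ran 4–24 h at room temperature.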

[2] = molecular target: T1, Avi-KRAS G12D (1-169) GppNHp/RAF1 RBD-3xFLAG (52-151) (Homo sapiens, UniProt P01116, G12D); assay: Raf1-KRAS G12D-GppNHP disruption HTRF assay (Biological Example 1); type: binding
T1 construct: Avi-KRAS G12D (1-169)
Method in brief: (§1)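 HTRF PPI disruption; buffer 50 mM Tris pH 7.5, 100 mM NaCl, 5 mM MgCl2, 0.1% BSA, 0.01% Tween, 10% DMSO. Protein mix 1 h RT shaking, reagent mix 1 h RT shaking. Data as % activity vs DMSO (100%).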

[3] = molecular target: T2, Avi-KRAS G12R (1-169) GppNHp/RAF1 RBD-3xFLAG (52-151) (Homo sapiens, UniProt P01116, G12R); assay: Raf1-KRAS G12R-GppNHP disruption HTRF assay (Biological Example 1); type: binding
T2 construct: Avi-KRAS G12R (1-169)
Method in brief: as §1

[4] = molecular target: T3, Avi-KRAS G12V (1-169) GppNHp/RAF1 RBD-3xFLAG (52-151) (Homo sapiens, UniProt P01116, G12V); assay: Raf1-KRAS G12V-GppNHP disruption HTRF assay (Biological Example 1); type: binding
T3 construct: Avi-KRAS G12V (1-169)
Method in brief: as §1

[5] = test system: GP2d cells (KRAS G12D); assay: Cell-based pERK HTRF assay in GP2d cell (Biological Example 2); settings: GP2d (KRAS G12D) cells, pERK HTRF
Method in brief: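 Treatment with test compounds lasted one hour in DMEM containing 10% FBS, with DMSO held at 0.25%. Dilution series: 9 points, half-log spacing, highest 1 μM or 100 nM. Lysates were incubated 4–24 h at room temperature with antibody mix, then HTRF was read at 320 nm excitation.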

[6] = molecular target: T4, Avi-KRAS WT (1-169) GppNHp/RAF1 RBD-3xFLAG (52-151) (Homo sapiens, UniProt P01116); assay: Raf1-KRAS WT-GppNHP disruption HTRF assay (Biological Example 1); type: binding
T4 construct: Avi-KRAS WT (1-169)
Method in brief: as §1

[7] = Homo sapiens, SW-620, SW620 (KRAS G12V) cells
[8] = KRAS G12D, GppNHp-loaded, Table 11
[9] = KRAS G12R, GppNHp-loaded, Table 11
[10] = KRAS G12V, GppNHp-loaded, Table 11
[11] = KRAS WT, GppNHp-loaded, Table 11
[12] = Homo sapiens, SW-620, SW620 (KRAS G12V) cells, class symbols
[13] = KRAS G12D, GppNHp-loaded, class symbols
[14] = KRAS G12R, GppNHp-loaded, class symbols
[15] = KRAS G12V, GppNHp-loaded, class symbols
[16] = KRAS WT, GppNHp-loaded, class symbols

T4 sequence (P01116 1-169 isoform P01116-2): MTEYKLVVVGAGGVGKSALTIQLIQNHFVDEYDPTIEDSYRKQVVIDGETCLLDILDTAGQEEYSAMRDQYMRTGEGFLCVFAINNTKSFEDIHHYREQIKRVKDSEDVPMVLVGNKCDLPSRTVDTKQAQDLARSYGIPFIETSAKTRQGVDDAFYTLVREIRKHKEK
T3 sequence (P01116 1-169 isoform P01116-2 G12V): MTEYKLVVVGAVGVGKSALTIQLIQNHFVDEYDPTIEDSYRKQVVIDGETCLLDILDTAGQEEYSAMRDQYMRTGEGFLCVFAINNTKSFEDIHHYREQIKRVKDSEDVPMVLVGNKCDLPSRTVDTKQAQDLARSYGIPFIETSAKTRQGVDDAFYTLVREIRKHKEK
T2 sequence (P01116 1-169 isoform P01116-2 G12R): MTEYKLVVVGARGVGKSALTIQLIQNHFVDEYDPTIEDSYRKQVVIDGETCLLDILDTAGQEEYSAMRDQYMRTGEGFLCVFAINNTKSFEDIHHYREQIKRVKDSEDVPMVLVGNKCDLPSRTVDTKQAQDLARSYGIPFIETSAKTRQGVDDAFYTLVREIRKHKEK
T1 sequence (P01116 1-169 isoform P01116-2 G12D): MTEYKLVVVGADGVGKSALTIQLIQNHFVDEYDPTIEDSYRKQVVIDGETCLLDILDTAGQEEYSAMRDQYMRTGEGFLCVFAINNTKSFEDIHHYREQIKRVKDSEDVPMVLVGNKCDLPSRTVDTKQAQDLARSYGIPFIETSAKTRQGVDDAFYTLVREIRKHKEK

Compound	IC50 [1, 7]	IC50 ([5]; GP2d)	IC50 [1, 12]	IC50 [2, 13]	IC50 [3, 14]	IC50 [4, 15]	IC50 ([5]; GP2d, class symbols)	IC50 [6, 16]	IC50 ([2]; KRAS G12D-GppNHp/RAF1 RBD HTRF)	IC50 ([3]; KRAS G12R-GppNHp/RAF1 RBD HTRF)	IC50 ([4]; KRAS G12V-GppNHp/RAF1 RBD HTRF)	IC50 ([6]; KRAS WT-GppNHp/RAF1 RBD HTRF)	other results
CC(=O)N1CC[C@H](N(C)c2nc(OC[C@@H]3C[C@@H](F)CN3C)nc3c(F)c(-c4ccc(F)c5sc(N)c(C#N)c45)c(C(F)(F)F)cc23)[C@@H]1C [Compound 226]	> 1000 nM	> 1000 nM											IC50 [2, 8]: > 10000 nM; IC50 [3, 9]: > 10000 nM; IC50 [4, 10]: > 10000 nM; IC50 [6, 11]: > 10000 nM
CCN(c1nc(OC[C@@]23CCCN2C[C@H](F)C3)nc2c(F)c(-c3ccc(F)c4sc(N)c(C#N)c34)c(C(F)(F)F)cc12)[C@@H]1CCN(C(=O)[C@@H](C)OC)[C@@H]1C (atropisomer, axis not shown) [Compound 807]			< 100 nM	< 100 nM	< 100 nM	< 100 nM	< 100 nM	< 100 nM					
CC(=O)N1C[C@H](F)[C@@H](N(C)c2nc(OC[C@@]34CCCN3C[C@H](F)C4)nc3c(F)c(-c4ccc(F)c5sc(N)c(C#N)c45)c(C(F)(F)F)cc23)C1 [Compound 273]	100 to 1000 nM	< 100 nM											IC50 [2, 8]: 100 to 1000 nM; IC50 [3, 9]: 100 to 1000 nM; IC50 [4, 10]: 100 to 1000 nM; IC50 [6, 11]: 100 to 1000 nM
CN1C[C@@H](N(C)c2nc(OC[C@@]34CCCN3C[C@H](F)C4)nc3c(F)c(-c4ccc(F)c5sc(N)c(C#N)c45)c(C(F)(F)F)cc23)CC1=O [Compound 338]	< 100 nM	< 100 nM							100 to 1000 nM	100 to 1000 nM	100 to 1000 nM	100 to 1000 nM	
N#Cc1cc2n(n1)CCN(c1nc(OC[C@@]34CCCN3C[C@H](F)C4)nc3c(F)c(-c4ccc(F)c5sc(N)c(C#N)c45)c(C(F)(F)F)cc13)C2 [Compound 393]	< 100 nM	< 100 nM							1000 to 10000 nM	> 10000 nM	> 10000 nM	> 10000 nM	
N#Cc1c(N)sc2c(F)ccc(-c3c(C(F)(F)F)cc4c(N5C[C@H]6C[C@@H]5CO6)nc(OC[C@@]56CCCN5C[C@H](F)C6)nc4c3F)c12 (single isomer, unassigned) [Compound 288]									> 10000 nM	> 10000 nM	> 10000 nM	> 10000 nM	IC50 ([1]; SW620 (KRAS G12V) cells): 100 to 1000 nM; IC50 [5]: 100 to 1000 nM
N#Cc1c(N)sc2c(F)ccc(-c3c(C(F)(F)F)cc4c(N5C[C@H]6C[C@@H]5CS6(=O)=O)nc(OC[C@@]56CCCN5C[C@H](F)C6)nc4c3F)c12 [Compound 322]	100 to 1000 nM	< 100 nM							100 to 1000 nM	100 to 1000 nM	1000 to 10000 nM	100 to 1000 nM	
CN(c1nc(OC[C@@]23CCCN2C[C@H](F)C3)nc2c(F)c(-c3ccc(F)c4sc(N)c(C#N)c34)c(C(F)(F)F)cc12)[C@@H]1CC(=O)N(Cc2ccccc2)C1 [Compound 452]	100 to 1000 nM	< 100 nM							100 to 1000 nM	100 to 1000 nM	100 to 1000 nM	100 to 1000 nM	
CN(C)C(=O)[C@@H]1CN(c2nc(OC[C@@]34CCCN3C[C@H](F)C4)nc3c(F)c(-c4ccc(F)c5sc(N)c(C#N)c45)c(C(F)(F)F)cc23)CCO1 [Compound 472]	< 100 nM	< 100 nM							100 to 1000 nM	1000 to 10000 nM	1000 to 10000 nM	1000 to 10000 nM	
CC(=O)N1C[C@@H](F)[C@@H](N(C)c2nc(OC[C@@]34CCCN3C[C@H](F)C4)nc3c(F)c(-c4ccc(F)c5sc(N)c(C#N)c45)c(C(F)(F)F)cc23)C1 [Compound 237]	< 100 nM	< 100 nM											IC50 [2, 8]: 100 to 1000 nM; IC50 [3, 9]: 100 to 1000 nM; IC50 [4, 10]: 100 to 1000 nM; IC50 [6, 11]: 100 to 1000 nM
CCN(c1nc(OC[C@@]23CCCN2C[C@H](F)C3)nc2c(F)c(-c3ccc(F)c4sc(N)c(C#N)c34)c(C(F)(F)F)cc12)[C@@H]1C[C@H](C)N(C(=O)C2COC2)C1 (atropisomer, axis not shown) [Compound 630]			< 100 nM	100 to 1000 nM	100 to 1000 nM	100 to 1000 nM	< 100 nM	100 to 1000 nM					

More lines, main results first:

IC50 [1, 7]	IC50 ([5]; GP2d)	IC50 [1, 12]	IC50 [2, 13]	IC50 [3, 14]	IC50 [4, 15]	IC50 ([5]; GP2d, class symbols)	IC50 [6, 16]	IC50 ([2]; KRAS G12D-GppNHp/RAF1 RBD HTRF)	IC50 ([3]; KRAS G12R-GppNHp/RAF1 RBD HTRF)	IC50 ([4]; KRAS G12V-GppNHp/RAF1 RBD HTRF)	IC50 ([6]; KRAS WT-GppNHp/RAF1 RBD HTRF)	Compound	other results
		< 100 nM	< 100 nM	100 to 1000 nM	100 to 1000 nM	< 100 nM	100 to 1000 nM					CCN(c1nc(OC[C@@]23CCCN2C[C@H](F)C3)nc2c(F)c(-c3ccc(F)c4sc(N)c(C#N)c34)c(C(F)(F)F)cc12)[C@H]1CCN(C(=O)c2cnnn2C)C1 (atropisomer, axis not shown) [Compound 733]	
		< 100 nM	< 100 nM	< 100 nM	< 100 nM	< 100 nM	< 100 nM					CCN(c1nc(OC[C@@]23CCCN2C[C@H](F)C3)nc2c(F)c(-c3ccc(F)c4sc(N)c(C#N)c34)c(C(F)(F)F)cc12)[C@H]1CCN(C(=O)N2CC(F)C2)[C@@H]1C (atropisomer, axis not shown) [Compound 780]	
< 100 nM	< 100 nM							100 to 1000 nM	100 to 1000 nM	100 to 1000 nM	100 to 1000 nM	CCN(c1nc(OC[C@@]23CCCN2C[C@H](F)C3)nc2c(F)c(-c3ccc(F)c4sc(N)c(C#N)c34)c(C(F)(F)F)cc12)[C@@H]1CCN(C(=O)OC)C1 [Compound 396]	
		< 100 nM	< 100 nM	< 100 nM	< 100 nM	< 100 nM	< 100 nM					COC(=O)N1CC[C@H](N(C)c2nc(OC[C@@]34CCCN3C[C@H](F)C4)nc3c(F)c(-c4ccc(F)c5sc(N)c(C#N)c45)c(C(F)(F)F)cc23)C1 (atropisomer, axis not shown) [Compound 756]	
		< 100 nM	< 100 nM	< 100 nM	100 to 1000 nM	< 100 nM	100 to 1000 nM					CCN(c1nc(OCC23CCCN2CC(F)C3)nc2c(F)c(-c3ccc(F)c4sc(N)c(C#N)c34)c(C(F)(F)F)cc12)C1CCN(C(=O)c2ncon2)C1 (stereo not drawn) [Compound 754]	
< 100 nM	< 100 nM							< 100 nM	< 100 nM	< 100 nM	100 to 1000 nM	CCN(c1nc(OC[C@@]23CCCN2C[C@H](F)C3)nc2c(F)c(-c3ccc(F)c4sc(N)c(C#N)c34)c(C(F)(F)F)cc12)[C@H]1C[C@H](C)N(C(=O)N(C)C)C1 (atropisomer, axis not shown) [Compound 521]	
< 100 nM	< 100 nM							< 100 nM	< 100 nM	< 100 nM	< 100 nM	CCN(c1nc(OC[C@@]23CCCN2C[C@H](F)C3)nc2c(F)c(-c3ccc(F)c4sc(N)c(C#N)c34)c(C(F)(F)F)cc12)[C@H]1CCN(C(=O)CCC#N)C1 (atropisomer, axis not shown) [Compound 555]	
